Laboratory results reported in patent US9340492B2, “Meta-Diarylaniline or meta-diarylpyridinamine compound, preparation method and medical uses thereof” (INSTITUTE OF PHARMACOLOGY AND TOXICOLOGY ACADEMY OF …, priority 2012, dated 2016).
Values after ≈ are worked out from the molar mass of the structure shown.

Columns and labels:
[1] = test system: E138K drug-resistant virus; assay: Activity against drug-resistant virus E138K; type: cell-based, HIV; conditions: Human immunodeficiency virus 1, read-out: Drug-resistant viruses EC50, E138K
[2] = test system: NL4-3 virus (HIV, wild-type); assay: Anti-HIV activity assay (TZM-bl cell model), NL4-3 wild-type; type: cell-based; conditions: human, TZM-bl cells infected with HIV-1 NL4-3 virus; CC50 (TZM-bl) / EC50 (NL4-3); read-out: SI, selective index, ratio of toxic CC50 value to active EC50 value
Method: (§1) The assay was carried out by reference to the document (Dang, Z, et al. J. Med. Chem. 2009, 52, 7887-7891). In particular, in a 96-well cell culture plate, solutions of the compounds to be tested at different concentrations were mixed with TZM-bl cells (from National Institutes of Health (NIH)) infected with 200 TCID50 NL4-3 virus, respectively. 2 days later, the culture medium was removed, 100 μl of Bright Glo reagent was added to each well, and Victor 2 luminometer was used to detect the […] of the cells.

[3] = test system: NL4-3 virus; assay: as above; type: cell-based; conditions: Human immunodeficiency virus 1, NL43, TZM-bl, read-out: EC50, concentration effective to inhibit the replication of half of viruses
Method: as §1

[4] = TZM-bl cytotoxicity assay (XTT); type: cell-based; conditions: human, TZM-bl cells, read-out: CC50, concentration effective to inhibit the growth of half of cells
Method: The assay was carried out by reference to the document (Dang, Z, et al. J. Med. Chem. 2009, 52, 7887-7891). In particular, in a 96-well cell culture plate, solutions of Compounds 1-57 at different concentrations (100 μl) were mixed with an equivalent volume of TZM-bl cells (from National Institutes of Health (NIH)) (5×10^5/mL), and were incubated at 37° C. for 4 d. 50 μl of freshly prepared XTT solution (1 mg/mL) containing 0.02 μM PMS was added. Optical density at 450 nm was measured 4 h later.

[5] = test system: multi-drug resistant viral strain of HIV-1 RT (RTMDR); assay: Activity against drug-resistant virus RTMDR; type: cell-based; conditions: Human immunodeficiency virus 1, read-out: Drug-resistant viruses EC50, RTMDR
[6] = Water-solubility at pH2.0; type: physicochemical; conditions: for solubility: aqueous medium (water) at pH 2.0, pH 2, simulated gastric fluid
[7] = Incubation experiment of human liver microsomes; type: in vitro ADME; conditions: for half-life: read-out: HLM t1/2
[8] = test system: K101E drug-resistant virus; assay: Activity against drug-resistant virus K101E; type: cell-based, HIV; conditions: Human immunodeficiency virus 1, read-out: Drug-resistant viruses EC50, K101E

| SMILES | EC50 [1] [nM] | selectivity ratio at 2 days [2] | EC50 [3] [nM] | CC50 at 4 d [4] [nM] | EC50 [5] [nM] | Water-solubility [6] [µg/mL] | HLM t1/2 [7] [min] | EC50 [8] [nM] | solubility [6] [µg/mL] | half-life [7] [min] |
| --- | --- | --- | --- | --- | --- | --- | --- | --- | --- | --- |
| Cc1cc(CCC#N)cc(C)c1Oc1cc(Nc2ccc(C#N)cc2)c(N)cc1C(F)(F)F [Compound 2, 5-(4″-cyanoethyl-2″,6″-dimethylphenoxy)-N^1-(4′-cyanophenyl)-4-trifluoromethyl-1,2-phenylenediamine] | 34.4 | > 6280 | 1.13 | > 7100 | 3.2 | 0.33 | 55.7 | 47.6 |  |  |
| COC(=O)c1cc(N)c(Nc2ccc(C#N)cc2)cc1Oc1c(C)cc(CCC#N)cc1C [Compound 4, 5-(4″-cyanoethyl-2″,6″-dimethylphenoxy)-N^1-(4′-cyanophenyl)-4-methoxycarbonyl-1,2-phenylenediamine] | 7.5 | > 5260 | 4.3 | > 22700 | 4.1 |  | 186 | 14 | 1.21 (≈ 2.75 µM) |  |
| Cc1cc(CCC#N)cc(C)c1Oc1cc(Nc2ccc(C#N)cc2)c(N)cc1CO [Compound 6, 5-(4″-cyanoethyl-2″,6″-dimethylphenoxy)-N^1-(4′-cyanophenyl)-4-hydroxymethyl-1,2-phenylenediamine] | 2.9 | 61000 | 0.39 | > 23800 | 1.8 |  | 20.9 | 3.4 | 18.8 (≈ 45.6 µM) |  |
| COc1cc(CCC#N)cc(Br)c1Oc1ccc(N)c(Nc2ccc(C#N)cc2)n1 [Compound 26A] | 6.93 | 6560 | 3.25 | 21000 | 3.46 |  |  | 3.89 | 1.77 (≈ 3.81 µM) | 54.7 |
| N#CCCc1cc(Br)c(Oc2ccc(N)c(Nc3ccc(C#N)cc3)n2)c(Br)c1 [Compound 28] | 4.11 | 24900 | 0.33 | 8210 | 0.74 |  |  | 7.63 | 3.26 (≈ 6.35 µM) | 23 |
| Cc1cc(CCC#N)cc(C)c1Oc1cc(Nc2ccc(C#N)cc2)c(N)cc1CNC1CC1 [Compound 34, 5-(4″-cyanoethyl-2″,6″-dimethylphenoxy)-N^1-(4′-cyanophenyl)-4-(2-cyclopropylaminomethyl)-1,2-phenylenediamine] | 25.7 | > 9430 | 0.53 | > 5000 | 4.88 |  |  | 27.3 | 9.11 (≈ 20.2 µM) | 42 |
